Where “and” joins values, the source holds several entries; their conditions need not be identical. Equal entries are not always repeated. Each block holds one compound with its values, some of them ahead of it.
Key:
human wild-type H4R = molecular target: T1, human wild-type H4R (Homo sapiens, UniProt Q9H3N8); assay: TGFα shedding assay, wild-type H4R; type: cell-based; conditions: WT H4R; AP-TGFα release; read-out: Emax (%) mean ± SEM
T1 construct: a mutant H4R (human, full-length, and untagged); expressed in transfected cells; host or cells: HEK293A
Experimental: (§1) The mutants were prepared using the primers listed in Supplementary Table 2. […] The chimeric Gαq/i1 subunit comprises the Gαq backbone and Gαi1-derived six-amino acid C-terminus and couples with Gi-coupled H4R but induces a Gq-dependent TGFα shedding response. After culturing for 1 day and incubating at 37 °C in a 5% CO2 incubator, the transfected cells were harvested by trypsinization, neutralized with Dulbecco’s modified Eagle’s medium containing 10% fetal calf serum (FCS) and penicillin–streptomycin, washed once with Hank’s balanced salt solution (HBSS) containing 5 mM of HEPES (pH 7.4), and resuspended in 6 mL of the HEPES-containing HBSS. The cell suspension was seeded into a 96-well plate at a volume of […] per well (typically, 48 wells per transfected cells) and incubated for 30 min in the CO2 incubator. Test compounds (10×, diluted in 0.01% BSA and 5 mM of HEPES-containing HBSS, […] volume) were added to duplicate wells and incubated for 1 h. After centrifugation, the conditioned medium ([…]) was transferred to an empty 96-well plate. AP reaction solution [10 mM of p-nitrophenylphosphate (p-NPP), 120 mM of Tris–HCl (pH 9.5), 40 mM of NaCl, and 10 mM of MgCl2] was dispensed into the cell culture plates and plates containing conditioned media ([…]). Absorbance was measured at 405 nm before and after a 1-h incubation period at 25 °C using a microplate reader (iMark™ Microplate Absorbance Reader; BioRad). Ligand-induced AP-TGFα release was calculated as previously described. The vehicle-treated AP-TGFα release signal was set as a baseline unless otherwise specified. AP-TGFα release signals were fitted with a four-parameter sigmoidal concentration-response curve, from which EC50 and Emax values were obtained, using GraphPad Prism 9 software (GraphPad Prism). Negative values of logarithmically transformed EC50 values (pEC50) were used to calculate the mean and standard error of independent experiments.
(§2) All functional study data were analyzed using Prism 9 (GraphPad) and are presented as mean ± standard error of the mean (SEM) of three independent experiments. Statistical analyses were performed using Prism 9 (GraphPad) with one-way analysis of variance followed by Dunnett’s post-hoc test. Values with p < 0.05 are considered statistically significant.

human H4R D94A mutant = molecular target: T2, human H4R D94A mutant (Homo sapiens, UniProt Q9H3N8, D94A); assay: TGFα shedding assay, H4R D94A mutant; type: cell-based; conditions: D94A mutant vs wild type
T2 construct: a mutant H4R (human, full-length, and untagged); expressed in transfected cells; host or cells: HEK293A
T2 sequence (Q9H3N8 whole entry D94A): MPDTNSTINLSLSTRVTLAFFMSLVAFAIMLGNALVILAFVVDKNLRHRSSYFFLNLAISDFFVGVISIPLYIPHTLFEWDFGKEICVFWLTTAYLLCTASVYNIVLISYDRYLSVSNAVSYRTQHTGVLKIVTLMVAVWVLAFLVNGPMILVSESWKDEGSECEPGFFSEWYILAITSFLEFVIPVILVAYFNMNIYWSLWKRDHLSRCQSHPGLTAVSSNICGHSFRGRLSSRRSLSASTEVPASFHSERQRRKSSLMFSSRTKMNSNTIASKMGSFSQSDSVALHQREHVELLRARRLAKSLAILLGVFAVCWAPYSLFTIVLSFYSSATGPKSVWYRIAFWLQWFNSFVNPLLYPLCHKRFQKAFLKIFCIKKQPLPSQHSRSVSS
Experimental: as §1
(§3) All functional study data were analyzed using Prism 9 (GraphPad) and are presented as mean ± standard error of the mean (SEM) of three independent experiments. […]

human H4R Y95A mutant = molecular target: T3, human H4R Y95A mutant (Homo sapiens, UniProt Q9H3N8, Y95A); assay: TGFα shedding assay, H4R Y95A mutant; type: cell-based; conditions: Y95A mutant vs wild type
T3 construct: a mutant H4R (human, full-length, and untagged); expressed in transfected cells; host or cells: HEK293A
T3 sequence (Q9H3N8 whole entry Y95A): as the sequence (Q9H3N8 whole entry D94A) above, with A94D, Y95A counted along it
Experimental: as §1, §3

human H4R T99A mutant = molecular target: T4, human H4R T99A mutant (Homo sapiens, UniProt Q9H3N8, T99A); assay: TGFα shedding assay, H4R T99A mutant; type: cell-based; conditions: T99A mutant; AP-TGFα release; read-out: Emax (%) mean ± SEM
T4 construct: a mutant H4R (human, full-length, and untagged); expressed in transfected cells; host or cells: HEK293A
T4 sequence (Q9H3N8 whole entry T99A): as the sequence (Q9H3N8 whole entry D94A) above, with A94D, T99A counted along it
Experimental: as §1, §2

human H4R N147A mutant = molecular target: T5, human H4R N147A mutant (Homo sapiens, UniProt Q9H3N8, N147A); assay: TGFα shedding assay, H4R N147A mutant; type: cell-based; conditions: N147A mutant; AP-TGFα release; read-out: Emax (%) mean ± SEM
T5 construct: a mutant H4R (human, full-length, and untagged); expressed in transfected cells; host or cells: HEK293A
T5 sequence (Q9H3N8 whole entry N147A): as the sequence (Q9H3N8 whole entry D94A) above, with A94D, N147A counted along it
Experimental: as §1, §2

human H4R N147W mutant = molecular target: T6, human H4R N147W mutant (Homo sapiens, UniProt Q9H3N8, N147W); assay: TGFα shedding assay, H4R N147W mutant; type: cell-based; conditions: N147W (H1R mimic) mutant vs wild type
T6 construct: a mutant H4R (human, full-length, and untagged); expressed in transfected cells; host or cells: HEK293A
T6 sequence (Q9H3N8 whole entry N147W): as the sequence (Q9H3N8 whole entry D94A) above, with A94D, N147W counted along it
Experimental: as §1, §2

human H4R N147Y mutant = molecular target: T7, human H4R N147Y mutant (Homo sapiens, UniProt Q9H3N8, N147Y); assay: TGFα shedding assay, H4R N147Y mutant; type: cell-based; conditions: N147Y mutant; AP-TGFα release; read-out: Emax (%) mean ± SEM
T7 construct: a mutant H4R (human, full-length, and untagged); expressed in transfected cells; host or cells: HEK293A
T7 sequence (Q9H3N8 whole entry N147Y): as the sequence (Q9H3N8 whole entry D94A) above, with A94D, N147Y counted along it
Experimental: as §1, §2

human H4R E182N mutant = molecular target: T8, human H4R E182N mutant (Homo sapiens, UniProt Q9H3N8, E182N); assay: TGFα shedding assay, H4R E182N mutant; type: cell-based; conditions: E182N (H1R mimic) mutant vs wild type
T8 construct: a mutant H4R (human, full-length, and untagged); expressed in transfected cells; host or cells: HEK293A
T8 sequence (Q9H3N8 whole entry E182N): as the sequence (Q9H3N8 whole entry D94A) above, with A94D, E182N counted along it
Experimental: as §1, §3

human H4R Y319A mutant = molecular target: T9, human H4R Y319A mutant (Homo sapiens, UniProt Q9H3N8, Y319A); assay: TGFα shedding assay, H4R Y319A mutant; type: cell-based; conditions: Y319A, raw replicates
T9 construct: a mutant H4R (human, full-length, and untagged); expressed in transfected cells; host or cells: HEK293A
T9 sequence (Q9H3N8 whole entry Y319A): as the sequence (Q9H3N8 whole entry D94A) above, with A94D, Y319A counted along it
Experimental: as §1, §2

human H4R F344I mutant = molecular target: T10, human H4R F344I mutant (Homo sapiens, UniProt Q9H3N8, F344I); assay: TGFα shedding assay, H4R F344I mutant; type: cell-based; conditions: F344I (H1R mimic) mutant vs wild type
T10 construct: a mutant H4R (human, full-length, and untagged); expressed in transfected cells; host or cells: HEK293A
T10 sequence (Q9H3N8 whole entry F344I): as the sequence (Q9H3N8 whole entry D94A) above, with A94D, F344I counted along it
Experimental: as §1, §2

human H4R Q347A mutant = molecular target: T11, human H4R Q347A mutant (Homo sapiens, UniProt Q9H3N8, Q347A); assay: TGFα shedding assay, H4R Q347A mutant; type: cell-based; conditions: Q347A mutant; AP-TGFα release; read-out: Emax (%) mean ± SEM
T11 construct: a mutant H4R (human, full-length, and untagged); expressed in transfected cells; host or cells: HEK293A
T11 sequence (Q9H3N8 whole entry Q347A): as the sequence (Q9H3N8 whole entry D94A) above, with A94D, Q347A counted along it
Experimental: as §1, §2

human H4R Q347G mutant = molecular target: T12, human H4R Q347G mutant (Homo sapiens, UniProt Q9H3N8, Q347G); assay: TGFα shedding assay, H4R Q347G mutant; type: cell-based; conditions: for Shedding assay: Q347G, raw replicates
T12 construct: a mutant H4R (human, full-length, and untagged); expressed in transfected cells; host or cells: HEK293A
T12 sequence (Q9H3N8 whole entry Q347G): as the sequence (Q9H3N8 whole entry D94A) above, with A94D, Q347G counted along it
Experimental: as §1, §2

human H4R W348A mutant = molecular target: T13, human H4R W348A mutant (Homo sapiens, UniProt Q9H3N8, W348A); assay: TGFα shedding assay, H4R W348A mutant; type: cell-based; conditions: W348A mutant vs wild type
T13 construct: a mutant H4R (human, full-length, and untagged); expressed in transfected cells; host or cells: HEK293A
T13 sequence (Q9H3N8 whole entry W348A): as the sequence (Q9H3N8 whole entry D94A) above, with A94D, W348A counted along it
Experimental: as §1, §3

H4R = conditions: cited from earlier work
H3R = conditions: cited from earlier work
H1R = conditions: range in words; cited from earlier work
H2R = conditions: range in words; cited from earlier work

- Emax (human wild-type H4R): 19.4 ± 1.15%
- signaling activity at mutant, in words (human H4R D94A mutant): loss of activity
- signaling activity at mutant, in words (human H4R Y95A mutant): dramatically reduced
- Emax (human H4R T99A mutant): 22.8 ± 4.74%
- Emax (human H4R N147A mutant): 14.1 ± 1.55%
- signaling activity at mutant, in words (human H4R N147W mutant): loss of signaling activity
- Emax (human H4R N147Y mutant): 12.7 ± 0.59%
- signaling activity at mutant, in words (human H4R E182N mutant): loss of signaling activity
- signaling activity at mutant, in words (human H4R F344I mutant): did not exhibit histamine activity
- Emax (human H4R Q347A mutant): 10.1 ± 0.39%
- Shedding assay (human H4R Q347G mutant; Histamine (M) -7): -1.992
- Emax (human H4R Q347G mutant; Q347G mutant, AP-TGFα release, read-out: Emax (%) mean ± SEM): 8.8 ± 2.03%
- signaling activity at mutant, in words (human H4R W348A mutant): loss of signaling activity
Structure (SMILES): NCCc1c[nH]cn1 [Histamine, histamine]
- Shedding assay (human H4R Y319A mutant; Histamine (M) -5): 10.8768 and 12.6921 and 5.241 and 7.176 and 7.908 and 3.094 and 14.7688 and 13.1717 and 9.412
- Shedding assay (human H4R Y319A mutant; Histamine (M) -6): 7.788 and 3.872 and 6.096 and 6.136 and 6.023 and -28.9656 and 4.365 and 5.9934 and -0.2046
- Shedding assay (human H4R Y319A mutant; Histamine (M) -7): 2.44 and -1.231 and 2.155 and 1.85 and -1.394 and -29.3347 and -0.9921 and -1.291 and -2.241
- Shedding assay (human H4R Y319A mutant; Histamine (M) -8): 0.6613 and -7 and -0.6175 and -0.4917 and -2.608 and -5.072 and 0.7937 and -1.913 and -2.583
- Shedding assay (human H4R Y319A mutant; Histamine (M) -9): -1.209 and -22 and -6.981 and -12.6602 and -5.831 and -0.2422 and 1.077 and -0.278 and -3.864
- Shedding assay (human H4R Y319A mutant; Histamine (M) -10): 1.569 and -4.989 and -1.258 and -2.207 and 3.939 and 1.7806 and 0.1134 and -2.911 and -0.5847
- Shedding assay (human H4R Q347G mutant; Histamine (M) -5): 4.036 and 4.533 and 6.034 and 9.629 and 9.888 and 8.1039 and 5.715 and 9.816 and 2.227
- Shedding assay (human H4R Q347G mutant; Histamine (M) -6): 1.244 and 2.414 and 2.709 and 6.101 and 2.59 and 6.7488 and 1.268 and 6.261 and -9.381
- Shedding assay (human H4R Q347G mutant; Histamine (M) -8): -6.39 and -0.908 and -4.351 and 0.1532 and -4.023 and 1.012 and -2.686 and 0.1556 and -3.9539
- Shedding assay (human H4R Q347G mutant; Histamine (M) -9): -4.698 and -2.781 and -3.3698 and 0.654 and -4.363 and -0.5978 and -4.585 and -1.275 and -2.147
- Shedding assay (human H4R Q347G mutant; Histamine (M) -10): -5.104 and -0.2815 and -4.911 and 2.46 and -0.8571 and 1.119 and -8.947 and 3.16 and -0.4453
- affinity of H4R (H4R; range in words): nM range
- affinity of H3R (H3R; range in words): nM range
- affinity of H1R (H1R): μM range
- affinity of H2R (H2R): μM range

Structure (SMILES): CN=C(NC#N)NC[C@H]1CC[C@H](c2cnc[nH]2)O1 [OUP-16]
- selectivity for H4R (H4R; H4R over H3R): 16 fold
- Ki (H4R; read-out: H4R Ki): 125 nM
- Ki (H3R; read-out: H3R Ki): 2000 nM

Reference: article PMC10589313 (Nature Communications, 2023)
